In patent publication US20090030015A1, “NOVEL MULTI-CYCLIC COMPOUNDS” (REVOTAR BIOPHARMACEUTICALS AG, priority 2005, published 2009):

Columns and labels:
[1] = biological target: T1, human E-Selectin-IgG-chimera (Homo sapiens, UniProt P16581); assay: Sialyl Lewis X Tyrosine Sulfate Assay (sLex TSA), E-selectin; format: binding; details: sLexTSA; for E-Selectin [% inhib.]: in vitro inhibition at 100 μM
T1 construct: fused on or other part: human IgG Fc part, captured on the plate by goat anti human Fc antibody; a tag, no second protein
T1 sequence (P16581 22-175 limits assumed): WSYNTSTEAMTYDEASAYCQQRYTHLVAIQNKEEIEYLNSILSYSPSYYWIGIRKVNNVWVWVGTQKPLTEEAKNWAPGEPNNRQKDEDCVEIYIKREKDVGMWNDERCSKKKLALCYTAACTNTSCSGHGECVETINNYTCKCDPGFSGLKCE
Experimental: (§1) Sialyl Lewis^X Tyrosine Sulfate Assay (sLe^x TSA):
(§2) Compounds of the present invention are assayed on a molecular level for their ability to inhibit the binding of P-, L-, or E-selectin chimeric molecules to sLe^x and tyrosinesulfate residues linked to a polymeric matrix as a PSGL-1 substitute. Selected IC50-values are determined.
(§3) Microtiter plates are coated overnight in carbonate buffer pH9.6 with goat anti human Fc mAB (10 μg/ml). After washing in assay buffer (25 mM 4-(2-hydroxyethyl)-1-piperazineethanesulfonic acid (HEPES), 150 mM NaCl, 1 mM CaCl2 pH7.4) and blocking (3% bovine serum albumin (BSA) in assay buffer) plates are incubated for 2 h at 37° C. with human P-Selectin-IgG-chimera (0.61 nM respectively 150 ng/mL) or human L-Selectin-IgG-chimera (0.61 nM respectively 89 ng/mL) or human E-Selectin-IgG-chimera (0.61 nM respectively 131 ng/mL). 5 μl of sLe^x-tyrosine sulfate polyacrylamide (1 mg/ml) carrying 15% sLe^x, 10% Tyrosine-sulfate and 5% biotin is complexed with 20 μl Streptavidin-Peroxidase solution (1 mg/ml) and 25 μl assay buffer without CaCl2. For use in the assay, the ligand complex is diluted 1:10000 in assay buffer and further diluted 1:1 with varying amounts of compounds in assay buffer incl. 2% DMSO. This mixture is added to the wells precoated with E- or P-selectin. After incubation for 2 h at 37° C., wells are washed for six times with in assay buffer incl. 0.005% Polyoxyethylenesorbitan monolaurate (TWEEN 20), developed for 10-15 min with 20 μl 3,3′,5,5′-tetramethylbenzidine (TMB)/H2O2 substrate solution and stopped with 20 μl 1M H2SO4. Bound sLe^x-Tyrosine sulfate ligand complex is determined by measuring optical density at 450 nm vs. 620 nm in a Fusion alpha-FP reader (sold from Packard Bioscience, Dreieich, Germany).

[2] = biological target: T2, human P-Selectin-IgG-chimera (Homo sapiens, UniProt P16109); assay: Sialyl Lewis X Tyrosine Sulfate Assay (sLex TSA), P-selectin; format: binding; details: sLexTSA; for P-Selectin [% inhib.]: in vitro inhibition at 100 μM
T2 sequence (P16109 42-771 limits assumed): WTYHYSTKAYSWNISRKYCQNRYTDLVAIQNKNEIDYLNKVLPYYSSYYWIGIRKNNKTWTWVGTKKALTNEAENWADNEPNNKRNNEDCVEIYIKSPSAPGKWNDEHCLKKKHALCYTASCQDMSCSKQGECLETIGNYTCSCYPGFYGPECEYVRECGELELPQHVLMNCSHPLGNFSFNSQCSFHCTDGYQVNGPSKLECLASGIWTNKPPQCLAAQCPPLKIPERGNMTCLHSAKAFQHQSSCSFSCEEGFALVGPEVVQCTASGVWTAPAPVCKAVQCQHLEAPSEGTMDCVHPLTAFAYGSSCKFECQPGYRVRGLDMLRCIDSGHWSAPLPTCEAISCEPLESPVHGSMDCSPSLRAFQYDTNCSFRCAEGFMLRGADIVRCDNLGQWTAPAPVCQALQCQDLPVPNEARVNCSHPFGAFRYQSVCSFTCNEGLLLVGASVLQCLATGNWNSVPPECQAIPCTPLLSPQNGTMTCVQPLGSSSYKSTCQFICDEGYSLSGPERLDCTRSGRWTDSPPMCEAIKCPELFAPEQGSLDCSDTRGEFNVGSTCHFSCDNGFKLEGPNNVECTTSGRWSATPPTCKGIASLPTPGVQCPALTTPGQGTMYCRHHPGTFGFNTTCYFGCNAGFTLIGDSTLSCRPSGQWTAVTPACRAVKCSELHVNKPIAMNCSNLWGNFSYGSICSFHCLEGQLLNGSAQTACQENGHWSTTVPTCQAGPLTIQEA
Experimental: as §1, §2, §3

[3] = biological target: T3, human L-Selectin-IgG-chimera (Homo sapiens, UniProt P14151); assay: Sialyl Lewis X Tyrosine Sulfate Assay (sLex TSA), L-selectin; format: binding; details: sLexTSA; for L-Selectin [% inhib.]: in vitro inhibition at 100 μM
T3 construct: fused on or other part: human IgG Fc part, captured on the plate by goat anti human Fc antibody; a tag, no second protein
T3 sequence (P14151 39-318 limits assumed): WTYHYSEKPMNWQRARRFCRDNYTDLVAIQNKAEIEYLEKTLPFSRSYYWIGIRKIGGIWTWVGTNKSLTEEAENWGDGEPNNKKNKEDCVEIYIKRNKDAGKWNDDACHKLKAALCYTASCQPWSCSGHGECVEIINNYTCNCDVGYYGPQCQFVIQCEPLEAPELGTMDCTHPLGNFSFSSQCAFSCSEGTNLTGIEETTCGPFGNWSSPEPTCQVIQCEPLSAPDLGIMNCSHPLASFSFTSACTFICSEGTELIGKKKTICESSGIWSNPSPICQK
Experimental: as §1, §2, §3

[4] = tested on: human E-selectin-IgG chimera; assay: Flow chamber assay, cell adhesion and rolling under flow conditions, E-selectin; format: cell-based; details: normalized ratio of %-inhibition of compound divided by %-inhibition of bimosiamose; 125 μM compound; HL-60 cells; flow shear 1 dyne/cm^2
Experimental: (§4) Flow Chamber Assay/Cell Adhesion and Rolling Under Flow Conditions
(§5) To assess the capability of compounds to inhibit cell binding under dynamic conditions resembling the flow in a blood vessel, flow chamber assays addressing/testing binding of HL-60 cells/various cell lines to P-selectin, L-selectin and E-selectin chimeric molecules are performed.
(§6) Cell attachment under flow conditions is determined using a parallel flow chamber system. A 35 mm polystyrene culture dish is coated for 1 hour at room temperature with coating buffer (50 mM tris-(hydroxymethyl)aminomethane buffer (Tris), 150 mM NaCl, 2 mM CaCl2; pH 7.4) containing human E- or P-selectin-IgG chimera at concentrations of 2.5 μg/ml or 10 μg/ml, respectively. After removal of the coating solution non specific binding sites are blocked for an additional hour with 1% BSA in coating buffer at room temperature. After washing with assay buffer (“Roswell Park Memorial Institute 1640” (RPMI 1640)+10 mM HEPES) the dish is fitted into a parallel plate laminar flow chamber (sold from Glycotech, Rockville, Md.) and mounted on an inverted phase-contrast microscope (sold from Olympus, Hamburg, Germany) equipped with a CCD camera (JVC) that is connected to a PC. Employing a peristaltic pump (sold from Ismatec, Wertheim-Mondfeld, Germany) the re-circulating system is equilibrated with assay buffer containing 125 μM compound or vehicle control (DMSO). Cells (1 million/ml) are added to the chamber and allowed to distribute for 2 minutes at a high flow rate. The flow rate is then decreased resulting in a calculated flow shear of 1 dyne/cm^2. Video sequences of 10 low power fields are digitally recorded after 5 minutes continuous flow. The percentage of inhibition is calculated from the mean number of cells per field that attached to the coated dish surface in the presence versus absence of compound […].

[5] = tested on: human P-selectin-IgG chimera; assay: Flow chamber assay, cell adhesion and rolling under flow conditions, P-selectin; format: cell-based; details: normalized ratio of %-inhibition of compound divided by %-inhibition of bimosiamose; 125 μM compound; HL-60 cells; flow shear 1 dyne/cm^2
Experimental: as §4, §5, §6

| E-Selectin [% inhib.] [1] | P-Selectin [% inhib.] [2] | L-Selectin [% inhib.] [3] | IC50 [1] | IC50 [2] | IC50 [3] | Compound | E-Selectin [Ratio] [4] | P-Selectin [Ratio] [5] |
| --- | --- | --- | --- | --- | --- | --- | --- | --- |
| 40.7 % inhib. | 3.0 % inhib. | 18.7 % inhib. | – | – | – | O=C(CCCNC(=O)c1cc(O)cc(O)c1)Nc1cccc(C(=O)O)c1 [Compound 21, 3-[4-(3,5-Dihydroxy-benzoylamino)-butyrylamino]-benzoic acid] | – | – |
| 40.8 % inhib. | 15.6 % inhib. | 19.4 % inhib. | – | – | – | COC(=O)Cc1cccc(NC(=O)CCCNC(=O)c2cc(O)cc(O)c2)c1 [Compound 35] | – | – |
| 35.8 % inhib. | 1.2 % inhib. | 6.8 % inhib. | – | – | – | Cc1ccc(C(=O)O)cc1NC(=O)CCCNC(=O)c1cc(O)cc(O)c1 [Compound 36] | – | – |
| – | – | – | > 500 µM | 133 µM | 376 µM | COc1cc(CC(=O)Nc2ccc(-c3cc(C(=O)O)c(C)o3)cc2)cc(OC)c1 [Compound 30, 5-{4-[2-(3,5-Dimethoxy-phenyl)-acetylamino]-phenyl}-2-methyl-furan-3-carboxylic acid] | 1.03 Ratio | n.s. |
| 42.7 % inhib. | 22.7 % inhib. | 21.3 % inhib. | – | – | – | COC(=O)c1cccc(NC(=O)CCCNC(=O)c2cc(O)cc(O)c2)c1 [Compound 22, 3-[4-(3,5-Dihydroxy-benzoylamino)-butyrylamino]-benzoic acid methyl ester] | – | – |
| 41.0 % inhib. | 12.9 % inhib. | 18.1 % inhib. | – | – | – | O=C(O)Cc1cccc(NC(=O)CCCNC(=O)c2cc(O)cc(O)c2)c1 [Compound 34] | – | – |
| 35.0 % inhib. | 1.4 % inhib. | 13.1 % inhib. | – | – | – | O=C(O)CCc1cccc(NC(=O)CCCNC(=O)c2cc(O)cc(O)c2)c1 [Compound 32] | – | – |
| – | – | – | 480 µM | 234 µM | 278 µM | Cc1oc(-c2ccc(NC(=O)c3cncc(-c4ccc(O)cc4O)c3)cc2)cc1C(=O)O [Compound 76, 5-(4-{[5-(2,4-Dihydroxy-phenyl)-pyridine-3-carbonyl]-amino}-phenyl)-2-methyl-furan-3-carboxylic acid] | 0.61 Ratio | 1.26 Ratio |
| 10.5 % inhib. | 18.9 % inhib. | 11.6 % inhib. | – | – | – | O=C(O)CN1CCN(C(=O)CCCNC(=O)c2cc(O)cc(O)c2)CC1 [Compound 23, {4-[4-(3,5-Dihydroxy-benzoylamino)-butyryl]-piperazin-1-yl}-acetic acid] | – | – |
| – | – | – | – | 81.2 µM | 157 µM | O=C(O)Cc1ccc(-c2ccccc2NC(=O)c2cccc(-c3ccc(O)cc3O)c2)s1 [Compound 63, (5-{2-[(2′,4′-Dihydroxy-biphenyl-3-carbonyl)-amino]-phenyl}-thiophen-2-yl)acetic acid] | 1.31 Ratio | 1.95 Ratio |
| 38.6 % inhib. | 10.6 % inhib. | 27.3 % inhib. | – | – | – | COC(=O)CCc1cccc(NC(=O)CCCNC(=O)c2cc(O)cc(O)c2)c1 [Compound 33] | – | – |
| 38.9 % inhib. | 5.2 % inhib. | 9.5 % inhib. | – | – | – | COC(=O)c1ccc(C)c(NC(=O)CCCNC(=O)c2cc(O)cc(O)c2)c1 [Compound 37] | – | – |
| – | – | – | – | 35.3 µM | 131 µM | COc1cc(OC)cc(-c2cccc(C(=O)Nc3ccccc3-c3ccc(CC(=O)O)s3)c2)c1 [Compound 81, (5-{2-[(3′,5′-Dimethoxy-biphenyl-3-carbonyl)-amino]-phenyl}-thiophen-2-yl)-acetic acid] | 1.27 Ratio | 1.55 Ratio |
| 35.9 % inhib. | 0.5 % inhib. | 5.9 % inhib. | – | – | – | O=C(CCCNC(=O)c1cc(O)cc(O)c1)Nc1ccc(C(=O)O)cc1 [Compound 24, 4-[4-(3,5-Dihydroxy-benzoylamino)-butyrylamino]-benzoic acid] | – | – |
| 34.4 % inhib. | 28.2 % inhib. | 31.1 % inhib. | – | – | – | COC(=O)c1ccc(CNC(=O)CCCNC(=O)c2cc(O)cc(O)c2)cc1 [Compound 40] | – | – |
| 40.9 % inhib. | 9.4 % inhib. | 19.3 % inhib. | – | – | – | Cc1c(NC(=O)CCCNC(=O)c2cc(O)cc(O)c2)cccc1C(=O)O [Compound 38] | – | – |
| – | – | – | – | 260 µM | 502 µM | O=C(O)Cc1ccc(-c2ccccc2NC(=O)c2cncc(-c3ccc(O)cc3O)c2)s1 [Compound 73, [5-(2-{[5-(2,4-Dihydroxy-phenyl)-pyridine-3-carbonyl]-amino}-phenyl)-thiophen-2-yl]-acetic acid] | 0.99 Ratio | 1.20 Ratio |
| 24.8 % inhib. | 2.9 % inhib. | 10.9 % inhib. | – | – | – | O=C(CCCNC(=O)c1cc(O)cc(O)c1)NCc1ccc(C(=O)O)cc1 [Compound 39] | – | – |
| – | – | – | – | 201 µM | 434 µM | O=C(Nc1ccccc1-c1ccc(C(=O)O)s1)c1cccc(-c2ccc(O)cc2O)c1 [Compound 67] | 1.60 Ratio | 0.92 Ratio |
